Experimental data taken from PubChem BioAssay (NCI).
“And” between values parts separate entries of the source, which are not always exact repeats. Equal values may be shown once.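 Briefly, cells in 96-well plates were exposed to five compound concentrations for 48 h, and endpoints were estimated by linear interpolation. GI50: concentration for 50% inhibition of growth. TGI: total growth inhibition.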

Assays:
Assay in all cases: NCI tumour cell line growth inhibition, 48 h
HL-60(TB) leukemia = tested on: HL-60(TB) leukemia
CAKI-1 renal = tested on: CAKI-1 renal
EKVX NSCLC = tested on: EKVX NSCLC
HOP-92 NSCLC = tested on: HOP-92 NSCLC
OVCAR-4 ovarian = tested on: OVCAR-4 ovarian
HCC-2998 colon = tested on: HCC-2998 colon
HS 578T breast = tested on: HS 578T breast
SR leukemia = tested on: SR leukemia
BT-549 breast = tested on: BT-549 breast
U251 CNS = tested on: U251 CNS

Structure (SMILES)	GI50 (HL-60(TB) leukemia)	TGI (HL-60(TB) leukemia)	GI50 (CAKI-1 renal)	TGI (CAKI-1 renal)	GI50 (EKVX NSCLC)	TGI (EKVX NSCLC)	GI50 (HOP-92 NSCLC)	TGI (HOP-92 NSCLC)	GI50 (OVCAR-4 ovarian)	TGI (OVCAR-4 ovarian)	GI50 (HCC-2998 colon)	TGI (HCC-2998 colon)	GI50 (HS 578T breast)	TGI (HS 578T breast)	TGI (SR leukemia)	GI50 (BT-549 breast)	TGI (BT-549 breast)	GI50 (U251 CNS)	TGI (U251 CNS)	GI50 (SR leukemia)
C[C@H]1Oc2cc(cnc2N)-c2c(nn(C)c2C#N)CN(C)C(=O)c2ccc(F)cc21	> 100 µM	> 100 µM	18.3 µM	> 100 µM	16 µM	> 100 µM	2.54 µM	> 54.2 µM	> 100 µM	> 100 µM	> 89 µM	> 100 µM	18.3 µM	> 100 µM	> 100 µM	> 100 µM	> 100 µM	> 100 µM	> 100 µM	
O=c1[nH]c(=O)n(C2CC(O)C(CO)O2)cc1CO (configuration not stated)	> 100 µM	> 100 µM	> 100 µM	> 100 µM			43.3 µM	> 100 µM	> 100 µM	> 100 µM	> 100 µM	> 100 µM	> 100 µM	> 100 µM	> 100 µM	> 100 µM	> 100 µM	2.95 µM	> 100 µM	> 100 µM
Ic1ccc(-n2nnnc2-c2cnoc2-c2ccccc2)cc1	78.9 µM	> 100 µM	37.9 µM	> 100 µM	7.49 µM	> 21.7 µM	37.9 µM	> 100 µM	> 64.2 µM	> 100 µM			42.7 µM	98.4 µM	> 100 µM		9.49 µM	44.8 µM	> 100 µM	37.7 µM
O=C(c1c(F)ccc(NS(=O)(=O)N2CC[C@@H](F)C2)c1F)c1c[nH]c2ncc(-c3cnc(C4CC4)nc3)cc12	7.69 µM and 6.11 µM	> 10 µM and 41.3 µM	3.22 µM and 3.29 µM	> 10 µM and 29.8 µM	> 10 µM and 9.15 µM	> 10 µM and 51.5 µM	0.576 µM and 2.24 µM	> 10 µM and 32.8 µM	6.02 µM and 4.39 µM	> 69.7 µM	> 10 µM and 12.5 µM	> 10 µM and 29.8 µM	2.33 µM and 2.06 µM	> 10 µM and 15.7 µM	> 10 µM and 79.6 µM	> 8.75 µM and 6.83 µM	> 10 µM and 38.1 µM	5.94 µM and 7.53 µM	> 10 µM and 39.3 µM	5.35 µM and 3.93 µM
CCCCCCNC(=O)c1nc(-c2ccccc2)oc1Cc1ccc(OP(=O)(O)O)cc1	25.2 µM	62.4 µM	15.8 µM	33.6 µM			14.2 µM	27.9 µM	16.6 µM	30.8 µM	18.2 µM	33.4 µM	18.7 µM	54.8 µM	50.2 µM	16.8 µM	32.7 µM	15.7 µM	29.9 µM	21.5 µM
CCN(CC)CCOc1ccc(/C=C2\CC3C4CC=C5C[C@@H](O)CC[C@]5(C)C4CC[C@]3(C)C2=O)cc1OC (some centres not stated)	10.1 µM	22.3 µM	4.14 µM	16.3 µM	9.56 µM	> 52.1 µM	1.45 µM	32.2 µM	18.8 µM	45.9 µM	8.43 µM	21.6 µM	5.62 µM	33.7 µM	3.9 µM	26 µM	> 52.6 µM	2.41 µM	6.37 µM	0.955 µM
